Measurements from patent publication US12551464B2, “N-(3-amino-3-oxopropyl)-2-[(1-methyl-4-nitro-1H-imidazol-5-yl)thio]benzamide and its use for treating HIV infection” (The United States of America, as represented by the …, priority 2019, dated 2026).
Values joined by “and” are separate entries in the source; they are usually repeats but may differ in a detail not shown here. Equal values may be shown once. Read-outs that look alike come from different tables or passages of the source.

What was measured:
[1] = Toxicity of metabolite, method not described
[2] = test system: CXCR4 Tropic Clade B HIV-192HT599; experiment: Anti-HIV activity in human PBMCs, reverse transcriptase in culture supernatants; assay type: cell-based; conditions: PBMC, 7 days in culture
Procedure: (§1) PHA-P stimulated PBMCs from three donors were pooled together and resuspended in fresh tissue culture medium at 1×10^6 cells/mL and plated in the interior wells of a 96 well round bottom microplate at 50 μL/well. A 100 μL volume of 9 concentrations of the compound serially diluted were transferred to the round bottom 96 well plate containing the cells in triplicate. 50 μL of HIV-1 at a predetermined dilution was added. Each plate contained cell control wells and virus control wells in parallel with the experimental wells. After 7 days in culture, efficacy was evaluated by measuring the reverse transcriptase in the culture supernatants and the cells were stained with the tetrazolium dye XTT to evaluate cytotoxicity.

PBMCs = experiment: Cytotoxicity in human PBMCs, XTT staining; assay type: cell-based; conditions: 7 days in culture, read-out: TC50 (the source's name)
Procedure: as §1

[3] = Cytotoxicity in human PBMCs, XTT staining; assay type: cell-based; conditions: human, PHA-P stimulated PBMCs pooled from three donors; Incubation Time 0 hours; 7 days in culture; read-out: TC50
Procedure: as §1

[4] = test system: simian immunodeficiency virus (SIV); experiment: Viral load by RT-PCR in SIV-infected rhesus macaques; assay type: in vivo
Procedure: (§2) Two SIV-infected rhesus macaques were treated with 300 mg/kg of the compound of formula (I) once daily via oral gavage. Viral load before treatment and after 6 months of treatment were measured by RT-PCR. Viral infectivity was determined by measuring the amount of p27 Gag (in pg/mL) in a viral infectivity assay wherein virus isolated from the animals was used to infect CEMx174 cells, followed by ELISA. Viral samples were diluted 1:1000 prior to assay. The CD4 count for each monkey was measured after 6 months.

[5] = Pharmacokinetics in cynomolgus macaques; assay type: in vivo; conditions: 300 mg/kg p.o. oral gavage
Procedure: The compound of formula (I) was administered to cynomolgus macaques at a dose of 300 mg/kg p.o. via oral gavage.

[6] = test system: simian immunodeficiency virus (SIV); experiment: Viral infectivity assay: virus isolated from the animals used to infect CEMx174 cells, p27 Gag ELISA; assay type: in vivo, rhesus macaques
Procedure: as §2

[7] = Maximum tolerated dose and dose range finding study in rats; assay type: in vivo
Procedure: The maximum tolerated dose in rats of the compound of formula (I) was determined to be greater than 2 g/day.

[8] = CD4 count in SIV-infected rhesus macaques; assay type: in vivo
Procedure: as §2

| SMILES | toxicity [1] | EC50 ([2]; Incubation Time 0 hours) | EC50 ([2]; Incubation Time 2 hours) | EC50 ([2]; Incubation Time 8 hours) | EC50 ([2]; Incubation Time 24 hours) | CC50 (PBMCs; Incubation Time 2 hours) | CC50 (PBMCs; Incubation Time 8 hours) | CC50 (PBMCs; Incubation Time 24 hours) | CC50 at 7 days [3] | Treated Viral Load ([4]; 300 mg/kg once daily oral gavage, after 6 months of treatment, RT-PCR) | reduction in viral load ([4]; 300 mg/kg p.o. daily over 6 months, versus before treatment) | metabolism in blood [5] | AUC ([5]; cynomolgus monkey, blood) | half-life ([5]; cynomolgus monkey, blood) | Treated Viral Infectivity (p27 Gag) ([6]; 300 mg/kg once daily oral gavage, 6 months, viral samples diluted 1:1000, CEMx174 cells, ELISA) | viral infectivity of SIV from treated animals compared with before treatment ([6]; 300 mg/kg p.o. daily over 6 months) | adverse clinical outcomes in dose range finding study ([7]; 2 g/kg p.o., once per day for 14 days) | MTD at 14 days ([7]; rat, in vivo, oral, 2 g/kg) | Treated CD4 Count ([8]; 300 mg/kg once daily oral gavage, after 6 months) | CD4 counts, assessment ([8]; after 6 months of 300 mg/kg p.o. daily) |
| --- | --- | --- | --- | --- | --- | --- | --- | --- | --- | --- | --- | --- | --- | --- | --- | --- | --- | --- | --- | --- |
| CSc1ccccc1C(=O)NCCC(N)=O [Compound 3] | non-toxic |  |  |  |  |  |  |  |  |  |  |  |  |  |  |  |  |  |  |  |
| Cn1cnc([N+](=O)[O-])c1Sc1ccccc1C(=O)NCCC(N)=O [compound of formula (I), N-(3-amino-3-oxopropyl)-2-[(1-methyl-4-nitro-1H-imidazol-5-yl)thio]benzamide] |  | 3.23 µM | 7.12 µM | 5.18 µM | 4.45 µM | > 100 µM | > 100 µM | > 100 µM | > 100 µM | 2.86 × 10^4 and 1.73 × 10^3 | approximately one | converted to two major metabolites | 5780 ng·h/mL | 7.6 h | <0.1 pg/mL | significantly decreased | did not show adverse clinical outcomes | > 2000 mg/kg/day | 365 and 363 | deemed normal |
